This is an account of results in patent US9249123B2, “Pyridinones/pyrazinones, method of making, and method of use thereof” (Genentech, Inc., priority 2010, dated 2016).

The test system of the first assay is CD86 surface expression on CD19+/7AAD- total mouse splenocytes stimulated with IgM. The assay can be described thus: CD86 Inhibition Assay. It counts as cell-based. As to conditions: Splenocyte; Balb/c mouse splenocytes, IgM stimulation, 24 hr. The procedure: A CD86 Inhibition assay can be conducted on Formula I compounds for the inhibition of B cell activity using total mouse splenocytes purified from spleens of 8-16 week old Balb/c mice (Example 905).
A generalized procedure for a standard assay for the inhibition of B cell activity that can be used to test Formula I compounds is as follows. Total mouse splenocytes are purified from spleens of 8-16 week old Balb/c mice by red blood cell lysis (BD Pharmingen #555899). Testing compounds are diluted to 0.5% DMSO and incubated with 1.25×10^6 splenocytes in a final volume of 200 μl in flat clear bottom plates (Falcon 353072) for 60 min at 37° C. Cells are then stimulated with the addition of 15 μg/ml IgM (Jackson ImmunoResearch 115-006-020), and incubated for 24 hr at 37° C., 5% CO2. Following the 24 hr incubation, cells are transferred to conical bottom clear 96-well plates and pelleted by centrifugation at 1200×g×5 min. Cells are preblocked by CD16/CD32 (BD Pharmingen #553142), followed by triple staining with CD19-FITC (BD Pharmingen #553785), CD86-PE (BD Pharmingen #553692), and 7AAD (BD Pharmingen #51-68981E). Cells are sorted on a BD FACSCalibur and gated on the CD19^+/7AAD^− population. The levels of CD86 surface expression on the gated population is measured versus test compound concentration. Exemplary results are in Table 3.
For orientation: EC50 means the concentration that produces a half-maximal response. Read a high EC50 as a less potent agent. On to `Cn1cc(-c2cccc(N3Cc4cc(C(C)(C)C)ccc4C3=O)c2CO)cc(Nc2ccc(C3CNC3)cn2)c1=O` [Compound 117, 2-(3-(5-(5-(azetidin-3-yl)pyridin-2-ylamino)-1-methyl-6-oxo-1,6-dihydropyridin-3-yl)-2-(hydroxymethyl)phenyl)-5-tert-butylisoindolin-1-one], for which a half-maximal effect (EC50) was put at 154 nM.
The compound `Cc1cc(Nc2cc(-c3cccc(N4Cc5cc(C(C)(C)C)sc5C4=O)c3CO)cn(C)c2=O)n[nH]1` [Compound 157, 5-(3-{2-tert-butyl-6-oxo-4H,5H,6H-thieno[2,3-c]pyrrol-5-yl}-2-(hydroxymethyl)phenyl)-1-methyl-3-[(5-methyl-1H-pyrazol-3-yl)amino]-1,2-dihydropyridin-2-one] showed an EC50 of 229 nM. This EC50 and that of the compound before are within 1.5-fold of each other.
Same read-out and setting: the same measure for `Cn1cc(-c2cccc(N3Cc4cc(C(C)(C)C)sc4C3=O)c2CO)cc(Nc2cc3n(n2)CCOC3)c1=O` [Compound 154, 5-(3-{2-tert-butyl-6-oxo-4H,5H,6H-thieno[2,3-c]pyrrol-5-yl}-2-(hydroxymethyl)phenyl)-1-methyl-3-{4H,6H,7H-pyrazolo[3,2-c][1,4]oxazin-2-ylamino}-1,2-dihydropyridin-2-one]: 149 nM; for `Cn1cc(-c2cccc(N3Cc4cc(C(C)(C)C)ccc4C3=O)c2CO)nc(Nc2cnn(C3CC3)c2)c1=O` [Compound 109, 5-tert-butyl-2-(3-(6-(1-cyclopropyl-1H-pyrazol-4-ylamino)-4-methyl-5-oxo-4,5-dihydropyrazin-2-yl)-2-(hydroxymethyl)phenyl) isoindolin-1-one]: 113 nM.
In the case of `Cn1cc(-c2ccc(F)c(N3Cc4cc(C(C)(C)C)sc4C3=O)c2CO)cc(Nc2ccncn2)c1=O` [Compound 141, 5-(3-{2-tert-butyl-6-oxo-4H,5H,6H-thieno[2,3-c]pyrrol-5-yl}-4-fluoro-2-(hydroxymethyl)phenyl)-1-methyl-3-(pyrimidin-4-ylamino)-1,2-dihydropyridin-2-one], the response was half-maximal at 775 nM (EC50).
Compound `Cn1cc(-c2cccc(N3Cc4cc(C(C)(C)C)sc4C3=O)c2CO)nc(Nc2ccc(C3CCNCC3)cc2)c1=O` [Compound 152, 5-(3-{2-tert-butyl-6-oxo-4H,5H,6H-thieno[2,3-c]pyrrol-5-yl}-2-(hydroxymethyl)phenyl)-1-methyl-3-{[4-(piperidin-4-yl)phenyl]amino}-1,2-dihydropyrazin-2-one] registered a concentration for a half-maximal effect (EC50) of 306 nM.
For the compound `Cn1cc(-c2cccc(N3Cc4cc(C(C)(C)C)sc4C3=O)c2CO)nc(Nc2ccc(N3CCOCC3)cc2)c1=O` [Compound 160, 5-(3-{2-tert-butyl-6-oxo-4H,5H,6H-thieno[2,3-c]pyrrol-5-yl}-2-(hydroxymethyl)phenyl)-1-methyl-3-{[4-(morpholin-4-yl)phenyl]amino}-1,2-dihydropyrazin-2-one], a half-maximal effect (EC50) was put at 153 nM.
As to `Cn1cc(-c2cccc(N3Cc4cc(C(C)(C)C)ccc4C3=O)c2CO)cc(Nc2ccncn2)c1=O` [Compound 107, 5-tert-butyl-2-(2-(hydroxymethyl)-3-(1-methyl-6-oxo-5-(pyrimidin-4-ylamino)-1,6-dihydropyridin-3-yl)phenyl)isoindolin-1-one], the EC50 came to 74 nM.
`CN1CCN(c2ccc(Nc3cc(-c4cccc(N5Cc6cc(C(C)(C)C)sc6C5=O)c4CO)cn(C)c3=O)nc2)CC1` [Compound 146, 5-(3-{2-tert-butyl-6-oxo-4H,5H,6H-thieno[2,3-c]pyrrol-5-yl}-2-(hydroxymethyl)phenyl)-1-methyl-3-{[5-(4-methylpiperazin-1-yl)pyridin-2-yl]amino}-1,2-dihydropyridin-2-one] gave a half-maximal effective concentration (EC50) of 28.9 nM.
Turning to `Cc1c(-c2cn(C)c(=O)c(Nc3ccc(C4C(=O)N(C)CCN4C)cc3)n2)cccc1N1Cc2cc(C(C)(C)C)ccc2C1=O` (centres unmarked) [Compound 127, 5-tert-butyl-2-[3-(6-{[4-(1,4-dimethyl-3-oxopiperazin-2-yl)phenyl]amino}-4-methyl-5-oxo-4,5-dihydropyrazin-2-yl)-2-methylphenyl]-2,3-dihydro-1H-isoindol-1-one], a half-maximal response (EC50) required 498 nM.

In another assay the test system is production of CD69 by B lymphocytes in human whole blood activated with goat F(ab')2 anti-human IgM. Briefly: CD69 Whole Blood Assay. It counts as cell-based. The following applies: Lymphocyte, anti-IgM stimulation, 20 hours, CD69 positive of CD20 positive cells. An excerpt: A CD69 Whole Blood Assay can be conducted on Formula I compounds to determine the ability of compounds to inhibit the production of CD69 by B lymphocytes in human whole blood activated by crosslinking surface IgM with goat F(ab′)2 anti-human IgM (Example 907).
Human blood is obtained from healthy volunteers, with the following restrictions: 1 week drug-free, non-smokers. Blood (approximately 20 mls to test 8 compounds) is collected by venipuncture into Vacutainer® (Becton, Dickinson and Co.) tubes with sodium heparin.
Solutions of Formula I compounds at 10 mM in DMSO are diluted 1:10 in 100% DMSO, then are diluted by three-fold serial dilutions in 100% DMSO for a ten point dose-response curve. The compounds are further diluted 1:10 in PBS and then an aliquot of 5.5 μl of each compound is added in duplicate to a 2 ml 96-well plate; 5.5 μl of 10% DMSO in PBS is added as control and no-stimulus wells. Human whole blood—HWB (100 μl) is added to each well. After mixing the plates are incubated at 37° C., 5% CO2, 100% humidity for 30 minutes. Goat F(ab′)2 anti-human IgM (10 μl of a 500 μg/ml solution, 50 μg/ml final) is added to each well (except the no-stimulus wells) with mixing and the plates are incubated for an additional 20 hours. At the end of the 20 hour incubation, samples are incubated with fluorescent labeled antibodies for 30 minutes, at 37° C., 5% CO2, 100% humidity. Include induced control, unstained and single stains for compensation adjustments and initial voltage settings. Samples are then lysed with PharM Lyse™ (BD Biosciences Pharmingen) according to the manufacturer's instructions. Samples are then transferred to a 96 well plate suitable to be run on the BD Biosciences HTS 96 well system on the LSRII machine. Data acquired and Mean Fluorescence Intensity values were obtained using BD Biosciences DIVA Software. Results are initially analyzed by FACS analysis software (Flow Jo). […] The IC50 values are calculated by Prism version 5, using a nonlinear regression curve fit.
What is called IC50 is the point on the concentration scale where inhibition reaches its midpoint. Read a low IC50 as higher potency. On to `CN1CCN(c2ccc(Nc3cc(-c4cccc(N5Cc6cc(C(C)(C)C)ccc6C5=O)c4CO)cn(C)c3=O)nn2)CC1` [Compound 122, 5-tert-butyl-2-(2-(hydroxymethyl)-3-(1-methyl-5-(6-(4-methylpiperazin-1-yl)pyridazin-3-ylamino)-6-oxo-1,6-dihydropyridin-3-yl)phenyl)isoindolin-1-one], for which the half-inhibitory concentration (IC50) is 185 nM.
With `Cn1cc(-c2cccc(N3Cc4cc(C(C)(C)C)sc4C3=O)c2CO)cc(Nc2ccn(CCO)n2)c1=O` [Compound 139, 5-(3-{2-tert-butyl-6-oxo-4H,5H,6H-thieno[2,3-c]pyrrol-5-yl}-2-(hydroxymethyl)phenyl)-3-{[1-(2-hydroxyethyl)-1H-pyrazol-3-yl]amino}-1-methyl-1,2-dihydropyridin-2-one], the IC50 is 42.6 nM.
Take `Cn1cc(-c2cccc(N3Cc4cc(C(C)(C)C)ccc4C3=O)c2CO)cc(Nc2cc(C3CC3)n[nH]2)c1=O` [Compound 110, 5-tert-butyl-2-(3-(5-(3-cyclopropyl-1H-pyrazol-5-ylamino)-1-methyl-6-oxo-1,6-dihydropyridin-3-yl)-2-(hydroxymethyl)phenyl) isoindolin-1-one]: the IC50 amounted to 1100 nM.
Same read-out and setting: the same measure for `Cn1cc(-c2cccc(N3Cc4cc(C(C)(C)C)sc4C3=O)c2CO)nc(Nc2ccc(N3CCOCC3)cc2)c1=O` [Compound 160, 5-(3-{2-tert-butyl-6-oxo-4H,5H,6H-thieno[2,3-c]pyrrol-5-yl}-2-(hydroxymethyl)phenyl)-1-methyl-3-{[4-(morpholin-4-yl)phenyl]amino}-1,2-dihydropyrazin-2-one]: 116 nM; for `Cn1cc(-c2cccc(N3Cc4cc(C(C)(C)C)ccc4C3=O)c2CO)cc(Nc2ccncn2)c1=O` [Compound 107, 5-tert-butyl-2-(2-(hydroxymethyl)-3-(1-methyl-6-oxo-5-(pyrimidin-4-ylamino)-1,6-dihydropyridin-3-yl)phenyl)isoindolin-1-one]: 605 nM.
As to `Cn1cc(-c2cccc(N3Cc4cc(C(C)(C)C)sc4C3=O)c2CO)cc(Nc2ccc(N3CCOCC3)cn2)c1=O` [Compound 151, 5-(3-{2-tert-butyl-6-oxo-4H,5H,6H-thieno[2,3-c]pyrrol-5-yl}-2-(hydroxymethyl)phenyl)-1-methyl-3-{[5-(morpholin-4-yl)pyridin-2-yl]amino}-1,2-dihydropyridin-2-one], the half-maximal inhibitory concentration (IC50) was determined as 112 nM.
As for `Cn1cc(-c2cccc(N3Cc4cc(C(C)(C)C)ccc4C3=O)c2CO)cc(Nc2ccn(CCO)n2)c1=O` [Compound 119], the half-maximal inhibitory concentration (IC50) worked out at 157 nM. This IC50 and that of the compound before are within 1.5-fold of each other.
